Where two headings read alike, the source gives them in different places.
What was measured:
CDK4/Cyclin D1 = CDK4/Cyclin D1 (Homo sapiens, UniProt P11802); test: NanoBRET live-cell target engagement, NanoLuc-CDK4/Cyclin D1 in HEK-293; type: binding; details: CDK4/D1, read-out: Inhibition at 10µM (%)
CDK16/Cyclin Y = CDK16/Cyclin Y (Homo sapiens, UniProt Q00536); test: NanoBRET live-cell target engagement, CDK16-NanoLuc/Cyclin Y in HEK-293; type: binding; details: read-out: Inhibition at 10µM (%), CDK16/Y
CDK20/Cyclin H = CDK20/Cyclin H (Homo sapiens, UniProt Q8IZL9); test: NanoBRET live-cell target engagement, NanoLuc-CDK20/Cyclin H in HEK-293; type: binding; details: read-out: Inhibition at 10µM (%), CDK20/H
CDK15/Cyclin Y = CDK15/Cyclin Y (Homo sapiens, UniProt Q96Q40); test: NanoBRET live-cell target engagement, NanoLuc-CDK15/Cyclin Y in HEK-293; type: binding; details: read-out: Inhibition at 10µM (%), CDK15/Y
CDK14/Cyclin Y = CDK14/Cyclin Y (Homo sapiens, UniProt O94921); test: NanoBRET live-cell target engagement, CDK14-NanoLuc/Cyclin Y in HEK-293; type: binding; details: read-out: Inhibition at 10µM (%), CDK14/Y
CDK8/Cyclin C = CDK8/Cyclin C (Homo sapiens, UniProt P49336); test: NanoBRET live-cell target engagement, NanoLuc-CDK8/Cyclin C in HEK-293; type: binding; details: for IC50: CDK8/C; for inhibition at 10 µM: read-out: Inhibition at 10µM (%), CDK8/C
CDK19/Cyclin C = CDK19/Cyclin C (Homo sapiens, UniProt Q9BWU1); test: NanoBRET live-cell target engagement, NanoLuc-CDK19/Cyclin C in HEK-293; details: for IC50: CDK19/C; for inhibition at 10 µM: read-out: Inhibition at 10µM (%), CDK19/C
[1] = IC50 for CDK/cyclin complexes, live HEK-293, 2 h, mean ± S.E.M. (n=3) or mean (n=2)
[2] = LOG10([CCT251545 analog]) (LOG10(µM)) 0.045757
[3] = LOG10([CCT251545 analog]) (LOG10(µM)) 0.522879
[4] = LOG10([CCT251545 analog]) (LOG10(µM)) 1
[5] = LOG10([CCT251545 analog]) (LOG10(µM)) -0.43136
[6] = LOG10([CCT251545 analog]) (LOG10(µM)) -0.90849
[7] = LOG10([CCT251545 analog]) (LOG10(µM)) -1.38561
[8] = LOG10([CCT251545 analog]) (LOG10(µM)) -1.86273
[9] = LOG10([CCT251545 analog]) (LOG10(µM)) -2.33985
[10] = LOG10([CCT251545 analog]) (LOG10(µM)) -2.81697
[11] = LOG10([CCT251545 analog]) (LOG10(µM)) -3.29409
[12] = LOG10([CCT251545 analog]) (LOG10(µM)) -3.77121

Sequence of CDK15/Cyclin Y (Q96Q40 whole entry): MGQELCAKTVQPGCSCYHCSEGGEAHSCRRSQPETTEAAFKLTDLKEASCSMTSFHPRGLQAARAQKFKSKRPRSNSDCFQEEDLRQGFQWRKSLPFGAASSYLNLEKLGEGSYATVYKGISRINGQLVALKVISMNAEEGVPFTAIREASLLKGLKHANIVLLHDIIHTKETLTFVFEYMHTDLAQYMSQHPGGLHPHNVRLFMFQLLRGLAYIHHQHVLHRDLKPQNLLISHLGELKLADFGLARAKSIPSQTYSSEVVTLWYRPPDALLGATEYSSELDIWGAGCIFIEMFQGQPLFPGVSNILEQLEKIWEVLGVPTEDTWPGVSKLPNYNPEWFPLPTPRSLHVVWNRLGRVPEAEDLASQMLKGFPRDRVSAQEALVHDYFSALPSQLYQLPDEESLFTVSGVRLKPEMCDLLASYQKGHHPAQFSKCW
Sequence of CDK15/Cyclin Y (Q8ND76 whole entry partner): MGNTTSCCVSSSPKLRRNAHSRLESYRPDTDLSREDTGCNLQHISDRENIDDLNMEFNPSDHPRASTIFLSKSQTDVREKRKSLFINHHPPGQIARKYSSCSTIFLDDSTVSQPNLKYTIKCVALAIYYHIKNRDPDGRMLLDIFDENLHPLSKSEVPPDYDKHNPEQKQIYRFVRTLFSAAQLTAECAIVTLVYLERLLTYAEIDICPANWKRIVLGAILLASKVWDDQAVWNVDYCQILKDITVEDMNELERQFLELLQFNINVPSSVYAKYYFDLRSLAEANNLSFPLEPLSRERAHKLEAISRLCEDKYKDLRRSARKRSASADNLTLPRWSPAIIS
Sequence of CDK19/Cyclin C (Q9BWU1 whole entry): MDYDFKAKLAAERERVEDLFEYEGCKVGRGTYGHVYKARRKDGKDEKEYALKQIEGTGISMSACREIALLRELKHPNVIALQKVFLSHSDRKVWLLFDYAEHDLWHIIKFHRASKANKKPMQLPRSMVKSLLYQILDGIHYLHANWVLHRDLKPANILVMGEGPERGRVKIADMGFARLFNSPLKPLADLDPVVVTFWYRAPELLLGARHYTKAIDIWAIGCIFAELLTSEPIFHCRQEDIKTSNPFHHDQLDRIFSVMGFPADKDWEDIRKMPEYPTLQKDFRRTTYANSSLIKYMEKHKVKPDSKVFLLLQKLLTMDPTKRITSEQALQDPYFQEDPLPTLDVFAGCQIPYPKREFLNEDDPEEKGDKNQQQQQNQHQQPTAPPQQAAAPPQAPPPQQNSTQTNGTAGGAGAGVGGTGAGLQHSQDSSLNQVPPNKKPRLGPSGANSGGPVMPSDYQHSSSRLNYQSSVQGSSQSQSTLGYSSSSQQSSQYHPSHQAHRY
Sequence of CDK19/Cyclin C (P24863 whole entry partner): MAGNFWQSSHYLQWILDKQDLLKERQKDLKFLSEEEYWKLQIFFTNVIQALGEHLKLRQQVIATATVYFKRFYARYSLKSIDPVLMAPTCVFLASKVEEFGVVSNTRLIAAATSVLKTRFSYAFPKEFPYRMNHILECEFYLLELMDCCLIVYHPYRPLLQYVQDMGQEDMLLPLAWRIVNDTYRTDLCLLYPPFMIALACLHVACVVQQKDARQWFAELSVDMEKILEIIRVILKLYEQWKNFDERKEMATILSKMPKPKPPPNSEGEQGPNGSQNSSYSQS
Sequence of CDK14/Cyclin Y (O94921 whole entry): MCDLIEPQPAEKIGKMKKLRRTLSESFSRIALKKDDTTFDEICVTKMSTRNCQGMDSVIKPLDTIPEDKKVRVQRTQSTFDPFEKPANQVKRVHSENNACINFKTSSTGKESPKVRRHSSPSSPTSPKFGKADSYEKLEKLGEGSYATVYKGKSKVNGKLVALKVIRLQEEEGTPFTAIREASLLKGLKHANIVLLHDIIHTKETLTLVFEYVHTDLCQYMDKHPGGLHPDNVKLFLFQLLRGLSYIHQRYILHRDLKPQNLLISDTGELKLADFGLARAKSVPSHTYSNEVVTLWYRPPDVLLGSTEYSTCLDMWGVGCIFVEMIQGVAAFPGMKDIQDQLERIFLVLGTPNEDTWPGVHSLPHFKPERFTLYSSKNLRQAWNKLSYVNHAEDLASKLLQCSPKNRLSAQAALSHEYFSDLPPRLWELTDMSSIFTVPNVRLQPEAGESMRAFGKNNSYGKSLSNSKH
Sequence of CDK14/Cyclin Y (Q8ND76 whole entry partner): as the sequence (Q8ND76 whole entry partner) above
Sequence of CDK4/Cyclin D1 (P11802 whole entry): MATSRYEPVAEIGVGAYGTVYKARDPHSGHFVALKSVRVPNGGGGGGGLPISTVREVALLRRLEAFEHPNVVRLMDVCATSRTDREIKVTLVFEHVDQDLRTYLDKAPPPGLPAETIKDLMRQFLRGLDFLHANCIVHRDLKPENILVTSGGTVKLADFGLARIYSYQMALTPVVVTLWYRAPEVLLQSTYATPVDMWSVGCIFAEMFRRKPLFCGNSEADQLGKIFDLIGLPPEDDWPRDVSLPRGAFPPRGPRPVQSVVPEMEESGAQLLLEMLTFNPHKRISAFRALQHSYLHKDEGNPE
Sequence of CDK4/Cyclin D1 (P24385 whole entry partner): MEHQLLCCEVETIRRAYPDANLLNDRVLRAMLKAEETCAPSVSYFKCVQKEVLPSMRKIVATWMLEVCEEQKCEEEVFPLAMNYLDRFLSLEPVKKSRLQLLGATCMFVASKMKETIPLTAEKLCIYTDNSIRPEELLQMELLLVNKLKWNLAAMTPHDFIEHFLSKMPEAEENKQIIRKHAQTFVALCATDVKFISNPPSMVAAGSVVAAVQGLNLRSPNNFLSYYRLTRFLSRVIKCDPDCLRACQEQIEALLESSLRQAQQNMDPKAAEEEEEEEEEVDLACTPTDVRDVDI
Sequence of CDK8/Cyclin C (P49336 whole entry): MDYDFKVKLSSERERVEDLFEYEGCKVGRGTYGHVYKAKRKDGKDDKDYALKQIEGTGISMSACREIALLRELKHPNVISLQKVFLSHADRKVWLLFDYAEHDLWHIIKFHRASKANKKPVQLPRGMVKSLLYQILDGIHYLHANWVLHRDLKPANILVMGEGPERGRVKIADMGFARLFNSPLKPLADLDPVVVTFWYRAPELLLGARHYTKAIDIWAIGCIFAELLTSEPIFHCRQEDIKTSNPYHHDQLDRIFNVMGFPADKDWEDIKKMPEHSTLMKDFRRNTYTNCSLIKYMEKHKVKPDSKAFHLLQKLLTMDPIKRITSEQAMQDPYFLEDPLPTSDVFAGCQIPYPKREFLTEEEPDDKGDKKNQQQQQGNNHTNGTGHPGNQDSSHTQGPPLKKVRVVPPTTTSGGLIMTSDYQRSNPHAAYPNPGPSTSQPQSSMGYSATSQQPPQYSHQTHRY
Sequence of CDK8/Cyclin C (P24863 whole entry partner): as the sequence (P24863 whole entry partner) above
Sequence of CDK16/Cyclin Y (Q00536 whole entry): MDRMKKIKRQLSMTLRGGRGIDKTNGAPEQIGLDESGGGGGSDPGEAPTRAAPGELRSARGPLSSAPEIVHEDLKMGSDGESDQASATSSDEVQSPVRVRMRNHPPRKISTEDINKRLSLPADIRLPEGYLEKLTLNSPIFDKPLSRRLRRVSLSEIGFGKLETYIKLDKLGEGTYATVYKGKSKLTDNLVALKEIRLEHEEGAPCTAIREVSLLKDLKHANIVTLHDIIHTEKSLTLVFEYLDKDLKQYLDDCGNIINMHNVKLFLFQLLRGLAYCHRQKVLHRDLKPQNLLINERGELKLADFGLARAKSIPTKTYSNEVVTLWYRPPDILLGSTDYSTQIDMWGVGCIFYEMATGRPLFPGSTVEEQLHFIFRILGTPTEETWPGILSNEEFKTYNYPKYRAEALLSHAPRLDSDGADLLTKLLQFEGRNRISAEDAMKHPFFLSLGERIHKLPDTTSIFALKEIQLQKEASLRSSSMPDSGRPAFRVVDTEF
Sequence of CDK16/Cyclin Y (Q8ND76 whole entry partner): as the sequence (Q8ND76 whole entry partner) above
Sequence of CDK20/Cyclin H (Q8IZL9 whole entry): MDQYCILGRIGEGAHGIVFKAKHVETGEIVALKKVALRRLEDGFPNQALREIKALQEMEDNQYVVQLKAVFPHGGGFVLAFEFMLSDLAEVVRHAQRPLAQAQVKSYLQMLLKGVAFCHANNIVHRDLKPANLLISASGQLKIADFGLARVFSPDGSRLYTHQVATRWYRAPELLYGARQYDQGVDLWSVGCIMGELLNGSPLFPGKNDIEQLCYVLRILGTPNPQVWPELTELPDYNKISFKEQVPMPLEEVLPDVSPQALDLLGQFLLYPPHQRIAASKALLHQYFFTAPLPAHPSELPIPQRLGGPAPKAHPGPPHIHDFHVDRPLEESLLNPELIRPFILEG
Sequence of CDK20/Cyclin H (P51946 whole entry partner): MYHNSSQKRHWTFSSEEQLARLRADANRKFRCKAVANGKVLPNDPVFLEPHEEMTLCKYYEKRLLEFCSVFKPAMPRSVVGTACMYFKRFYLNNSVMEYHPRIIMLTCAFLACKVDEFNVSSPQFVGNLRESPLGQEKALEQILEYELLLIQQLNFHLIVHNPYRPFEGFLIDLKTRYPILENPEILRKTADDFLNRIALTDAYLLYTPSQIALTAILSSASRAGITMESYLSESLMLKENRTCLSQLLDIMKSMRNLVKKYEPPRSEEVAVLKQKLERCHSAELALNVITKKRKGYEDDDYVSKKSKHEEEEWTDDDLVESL

## COC1CN(C(=O)c2ccc3c(N)ncc(-c4ccc(-c5cnn(C)c5)cc4)c3n2)C1 [CCT251545 analog]
CDK4/Cyclin D1; average
  inhibition at 10 µM: 12.4%
CDK4/Cyclin D1; experiment 1
  inhibition at 10 µM: 11.6%
CDK4/Cyclin D1; experiment 2
  inhibition at 10 µM: 13.1%
CDK16/Cyclin Y; experiment 1
  inhibition at 10 µM: 6.3%
CDK16/Cyclin Y; experiment 2
  inhibition at 10 µM: 1.1%
CDK20/Cyclin H; experiment 1
  inhibition at 10 µM: 12.7%
CDK20/Cyclin H; experiment 2
  inhibition at 10 µM: 4.1%
CDK15/Cyclin Y; average
  inhibition at 10 µM: -9.7%
CDK15/Cyclin Y; experiment 1
  inhibition at 10 µM: -3.1%
CDK15/Cyclin Y; experiment 2
  inhibition at 10 µM: -16.3%
CDK14/Cyclin Y; average
  inhibition at 10 µM: -6.1%
CDK14/Cyclin Y; experiment 1
  inhibition at 10 µM: -1.1%
CDK14/Cyclin Y; experiment 2
  inhibition at 10 µM: -11%
CDK8/Cyclin C; IC50 (nM), experiment 1
  IC50: 2.6 nM
CDK8/Cyclin C; IC50 (nM), experiment 2
  IC50: 2 nM
CDK8/Cyclin C; IC50 (nM), experiment 3
  IC50: 12 nM
CDK8/Cyclin C; [1]
  IC50: 6 nM
CDK8/Cyclin C; [2]
  CDK8 Occupancy (%): 92.3464%
CDK8/Cyclin C; [3]
  CDK8 Occupancy (%): 91.9478%
CDK8/Cyclin C; [4]
  CDK8 Occupancy (%): 84.2411%
CDK8/Cyclin C; [5]
  CDK8 Occupancy (%): 91.0176%
CDK8/Cyclin C; [6]
  CDK8 Occupancy (%): 91.5491%
CDK8/Cyclin C; [7]
  CDK8 Occupancy (%): 90.619%
CDK8/Cyclin C; [8]
  CDK8 Occupancy (%): 85.7027%
CDK8/Cyclin C; [9]
  CDK8 Occupancy (%): 65.2404%
CDK8/Cyclin C; [10]
  CDK8 Occupancy (%): 51.023%
CDK8/Cyclin C; [11]
  CDK8 Occupancy (%): 25.2458%
CDK8/Cyclin C; [12]
  CDK8 Occupancy (%): 19.9309%
CDK8/Cyclin C; average
  inhibition at 10 µM: 96%
CDK8/Cyclin C; experiment 1
  inhibition at 10 µM: 95%
CDK8/Cyclin C; experiment 2
  inhibition at 10 µM: 96.9%
CDK19/Cyclin C; IC50 (nM), experiment 1
  IC50: 9 nM
CDK19/Cyclin C; IC50 (nM), experiment 2
  IC50: 3 nM
CDK19/Cyclin C; IC50 (nM), experiment 3
  IC50: 17 nM
CDK19/Cyclin C; [1]
  IC50: 10 nM
CDK19/Cyclin C; [2]
  CDK19 occupancy (%): 84.8277%
CDK19/Cyclin C; [3]
  CDK19 occupancy (%): 83.6158%
CDK19/Cyclin C; [4]
  CDK19 occupancy (%): 72.7094%
CDK19/Cyclin C; [5]
  CDK19 occupancy (%): 89.9173%
CDK19/Cyclin C; [6]
  CDK19 occupancy (%): 87.736%
CDK19/Cyclin C; [7]
  CDK19 occupancy (%): 82.404%
CDK19/Cyclin C; [8]
  CDK19 occupancy (%): 73.4365%
CDK19/Cyclin C; [9]
  CDK19 occupancy (%): 46.7764%
CDK19/Cyclin C; [10]
  CDK19 occupancy (%): 31.7498%
CDK19/Cyclin C; [11]
  CDK19 occupancy (%): 15.7537%
CDK19/Cyclin C; [12]
  CDK19 occupancy (%): 2.424%
CDK19/Cyclin C; average
  inhibition at 10 µM: 92.3%
CDK19/Cyclin C; experiment 1
  inhibition at 10 µM: 93.4%

From article PMC7265341, “Quantifying CDK inhibitor selectivity in live cells” (Nature Communications, 2020)
